The values below are quoted from earlier work in patent publication US7709654B2, “Process for producing oxazole, imidazole, pyrrazole boryl compounds” (Board of Trustees of Michigan State University, priority 2006, dated 2010).

The target in the data set is T1, cyclooxygenase-2 (COX-2) (Homo sapiens, UniProt P35354).
T1 sequence (P35354 18-604): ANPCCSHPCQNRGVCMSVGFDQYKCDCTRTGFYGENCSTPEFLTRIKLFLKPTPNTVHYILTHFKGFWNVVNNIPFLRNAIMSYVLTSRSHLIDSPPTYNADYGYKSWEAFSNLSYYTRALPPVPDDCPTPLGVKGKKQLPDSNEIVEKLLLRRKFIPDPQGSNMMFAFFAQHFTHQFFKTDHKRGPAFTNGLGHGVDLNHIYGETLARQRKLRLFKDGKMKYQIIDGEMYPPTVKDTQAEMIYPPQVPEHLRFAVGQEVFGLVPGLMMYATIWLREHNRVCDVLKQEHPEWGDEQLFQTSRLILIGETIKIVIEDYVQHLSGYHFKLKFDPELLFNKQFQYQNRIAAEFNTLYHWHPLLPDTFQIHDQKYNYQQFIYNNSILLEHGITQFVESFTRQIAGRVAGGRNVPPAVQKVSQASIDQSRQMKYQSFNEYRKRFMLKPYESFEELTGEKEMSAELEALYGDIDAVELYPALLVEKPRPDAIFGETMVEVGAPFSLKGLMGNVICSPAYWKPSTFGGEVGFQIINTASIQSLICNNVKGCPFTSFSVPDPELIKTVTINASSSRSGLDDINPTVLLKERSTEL
Particulars: COX-2 versus COX-1.

SMILES strings stand for the structures.

Consider `Cc1nc(C2CCCCC2)c(-c2ccc(S(N)(=O)=O)c(F)c2)o1` [JTE-522, 4-(4-cyclohexyl-2-methyloxazol-5-yl)-2-fluorobenzenesulfonamide], for which the “COX-2 inhibition (in words)” value is “potent, highly selective, and orally active COX-2 inhibitor”.
